According to patent publication EP0315434A2, “Pyridoxal hydrazone derivatives their production and use and pharmaceutical compositions containing the same” (YISSUM RESEARCH DEVELOPMENT COMPANY OF THE HEBREW …, priority 1987, dated 1989):

How the values were obtained:
[1] = stated as known; cited from earlier work
[2] = background statement, "probably"; cited from earlier work
[3] = Fate of ⁵⁹Fe tracer incubated with chelator and injected into normal rats (radioiron distribution and excretion); format: in vivo
Procedure: Table 1 describes the fate of ⁵⁹Fe tracer reincubated […] with 10 mg of some of the above iron chelators and then injected subcutaneously to groups of 4 normal rats. Numbers represent mean cumulative radioiron excretion within 4 days of injection. For comparison, spontaneous excretion of radioiron and the excretion of desferrioxamine (DF) bound radioiron are also given. […]
Spleen and kidney were counted as whole organs.
(§1) The excretion of radioiron following ⁵⁹Fe labelling was measured in animals confined to solitary metabolic cages with stainless steel grid bottoms, and stool and urine were collected separately.

[4] = test system: non-resistant strain of P. falciparum; conditions: molar concentration 1.5 x 10⁻⁵, according to Raventos-Suarez; cited from earlier work
[5] = Mobilization of iron from hepatic parenchymal stores in hypertransfused rats labelled with ⁵⁹Fe-ferritin; format: in vivo
Procedure: In each case, 40 mg of each compound was administered per animal in a single subcutaneous injection.
In vivo studies of chelating efficiency were performed in two models: (a) normal rats injected i.p. with 10 mg of either desferrioxamine B (DF), PIH of the prior art, PPH of Example 4 or PPHE from Example 5 labelled in vitro with ⁵⁹Fe; and (b) hypertransfused rats receiving twice 4 ml/100gm packed RBC intravenously 5 and 3 days prior to study (hematocrit 68%) and labelled with ⁵⁹Fe-ferritin injected i.v. 24h prior to iron chelating therapy as described previously. Drugs to be tested in the ⁵⁹Fe-ferritin model were given either by i.p. injection or by gastric tube at a dose of 40 mg per animal. Radioiron excretion and organ distribution were determined after 4 days
The radioactivity of spleen, weighed portions of the liver, and 1 ml samples of blood were determined in an automatic well type scintillation counter (Packard Autogamma Model 5360 Scintillation spectrometer). Spleen and kidney were counted as whole organs.
as §1, with “Whole body counts were performed in a small animal counter (Packard Model 446 Armac) scintillation detector. The” for “The”

[6] = 10 mg chelator with ⁵⁹Fe, subcutaneous, normal rats, cumulative within 4 days
[7] = 10 mg chelator with ⁵⁹Fe, subcutaneous, normal rats, within 4 days
[8] = hypertransfused rats, 40 mg per animal, after 4 days, Desferral i.p., route not printed for Ex. 4 and Ex. 5, mean ± SD
[9] = hypertransfused rats, 40 mg per animal, after 4 days, Desferral i.p., route not printed for Ex. 4 and Ex. 5, mean ± SD, listed as desferral
[10] = hypertransfused rats, 40 mg per animal, single subcutaneous injection

CC(=O)N(O)CCCCCNC(=O)CCC(=O)N(O)CCCCCNC(=O)CCC(=O)N(O)CCCCCN [Desferral, desferrioxamine, reference compound]
oral efficiency [1]: no oral efficiency
half life in vivo [2]: less than 1 hr
Radioiron Distribution in % Feces [3, 6]: 13.5±0.7%
Radioiron Distribution in % Total excretion [3, 6]: 85.4±4.3%
Radioiron Distribution in % Urine [3, 6]: 71.9±3.6%
Radioiron Distribution in % Blood [3, 7]: 8.7±1.6%
Radioiron Distribution in % Liver [3, 7]: 2.7±0.3%
Radioiron Distribution in % Spleen [3, 7]: 0.14±0.03%
TOTAL EXCRETION OF RADIO-IRON IN RATS % ([3]; as in Table 1): 85.4± 4.3%
INHIBITION OF GROWTH OF P. falciparum % INHIBITION [4]: complete after 96 Hrs. ^(*)
reduction in hepatocellular (hepatic) radioactivity ([5]; 40 mg i.p., hypertransfused rats, 4 days): 20%
ORGAN DISTRIBUTION AND EXCRETION OF ⁵⁹Fe-FERRITIN (%) BLOOD [5, 8]: 4.5±0.4%
ORGAN DISTRIBUTION AND EXCRETION OF ⁵⁹Fe-FERRITIN (%) LIVER [5, 8]: 70.4± 6.0%
ORGAN DISTRIBUTION AND EXCRETION OF ⁵⁹Fe-FERRITIN (%) STOOL [5, 8]: 23.3±0.1%
ORGAN DISTRIBUTION AND EXCRETION OF ⁵⁹Fe-FERRITIN (%) TOTAL EXCRETION [5, 8]: 24.5±0.1%
ORGAN DISTRIBUTION AND EXCRETION OF ⁵⁹Fe-FERRITIN (%) URINE ([5]; hypertransfused rats, 40 mg per animal, after 4 days, Desferral i.p., route not printed for Ex. 4 and Ex. 5, mean ± SD, listed as DESFERRAL): 1.2±0%
ORGAN DISTRIBUTION AND EXCRETION OF ⁵⁹Fe-FERRITIN (%) STOOL [5, 9]: 23%
ORGAN DISTRIBUTION AND EXCRETION OF ⁵⁹Fe-FERRITIN (%) URINE [5, 9]: negligible
Ferritin-⁵⁹Fe distribution in % Blood [5, 10]: 4.5±0.4%
Ferritin-⁵⁹Fe distribution in % Feces [5, 10]: 23.3±0.1%
Ferritin-⁵⁹Fe distribution in % Liver [5, 10]: 70.4±6.0%
Ferritin-⁵⁹Fe distribution in % Residual [5, 10]: 0%
Ferritin-⁵⁹Fe distribution in % Spleen [5, 10]: 0.6±0.1%
Ferritin-⁵⁹Fe distribution in % Urine [5, 10]: 1.2±0%
total radioiron excretion ([5]; oral, 40 mg drug/animal by gastric tube, hypertransfused ⁵⁹Fe-ferritin labelled rats): 6.0%
